Patent US7531312B2, “Simplified biological evaluation method of natural and artificial chemicals by using DNA injury index and apparatus therefor” (TAS Project Co., Ltd., priority 2000, dated 2009)

How the values were obtained:
[1] = system: 2′-deoxyguanosine (dG); assay: 8OHdG produced from added dG, standing at room temperature or UV irradiation (Examples 1-7); conditions: for evaluation in words: oxidation induction or antioxidant ability toward dG: conclusions of Examples 2-7;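 on all read-outs here: Cell-free test: dG in test solution, held at room temperature or exposed to 254 nm UV, then 8OHdG quantified by HPLC with electrochemical detection, compared against dG in ultrapure water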
Method: Separately, the amount of 8OHdG after an ultrapure water solution of dG is left to stand under the same conditions as above for a predetermined time is measured (this value is defined as B). If A is greater than B, the test substance is evaluated to have oxidation induction ability and conversely if A is smaller than B, the test substance is evaluated to have antioxidant ability. In either case, it is judged that the greater the difference is, the greater degree of oxidation induction ability or antioxidant capability the test substance has.
Then, 20 μl of 200 μg/ml dG (dissolved in ultrapure water) was added to each well and one of the plates was left to stand as it was at room temperature for 90 minutes and the other plate was irradiated with UV light (254 nm, 860 μW/cm^2) for 90 minutes in a UV light irradiation box. […] Subsequently, nucleosides in the both were quantified by use of the UV light absorption analyzer connected to the HPLC and the electrochemical detector.
Solutions of predetermined concentrations of vitamin C (VC), vitamin E (VE), catechin (Cate) and tannic acid (Tan) were prepared and 180 μl portions were injected into each well of two 99-well plastic plates. Then, 20 μl of 200 μg/ml dG (dissolved in ultrapure water) was added to each well and one of the plates was left to stand as it was at room temperature for 90 minutes and the other plate was irradiated with UV light (254 nm, 860 μW/cm^2) for 90 minutes in a UV light irradiation box.
Then, 20 μl of 200 μg/ml dG (dissolved in ultrapure water) was added to each well and one of the plates was left to stand as it was at room temperature for 90 minutes and another plate was left to stand similarly at room temperature for 24 hours. The remaining three plates were irradiated with UV light (254 nm, 860 μW/cm^2) for 60 minutes, 90 minutes and 120 minutes, respectively, in a UV light irradiation box.
Solutions of predetermined concentrations of glucose (Glu), raffinose (Raffi) and sucrose (Suc) were prepared and 180 μl portions thereof were injected into each well of four 99-well plastic plates. Then, 20 μl of 200 μg/ml dG (dissolved in ultrapure water) was added to each well and one of the plates was left to stand as it was at room temperature for 90 minutes. The remaining three plates were irradiated with UV light (254 nm, 860 μW/cm^2) for 60 minutes, 90 minutes and 120 minutes, respectively, in a UV light irradiation box.
Then, 20 μl of 200 μg/ml dG (dissolved in ultrapure water) was added to each well and one of the plates was left to stand as it was at room temperature for 90 minutes and the other plate was irradiated with UV light (254 nm, 860 μW/cm^2) for 90 minutes in a UV light irradiation box.
Solutions of various concentrations of uric acid (dissolving fluid: distilled water+0.025% FBS) were prepared and 180 μl portions thereof were injected into each well of two 99-well plastic plates. Then, 20 μl of 200 μg/ml dG (dissolved in ultrapure water) was added to each well and one of the plates was left to stand as it was at room temperature for 90 minutes and the other plate was irradiated with UV light (254 nm, 860 μW/cm^2) for 90 minutes in a UV light irradiation box.

[2] = system: 2′-deoxyguanosine (dG); assay: 8OHdG produced from dG with test substance and coexisting bisphenol A, standing or UV (Example 9); type: biochemical; conditions: for effect on 8OHdG with BPA and UV light irradiation: Example 9
Method: 170 μl portions of ultrapure water and predetermined concentrations of vitamin C (VC), vitamin E (VE), and glucose (Glu) as test substance were added to each well of two […] plastic plates and, as additional solution, 20 μl of ultrapure water or predetermined concentration of bisphenol A (BPA) were injected into each well.

[3] = 1 μg/ml, Table 2, distilled water 0.15
[4] = 10 μg/ml, Table 2, distilled water 0.15
[5] = test substance 0.00001%, additional solution BPA (50 ppm), BPA alone 11.58
[6] = test substance 0.0001%, additional solution BPA (50 ppm), BPA alone 11.58
[7] = test substance 0.001%, additional solution BPA (50 ppm), BPA alone 0.22
[8] = test substance 0.001%, additional solution BPA (50 ppm), BPA alone 11.58
[9] = test substance 0.001%, additional solution ultrapure water

For `O=C(OC[C@H]1O[C@@H](OC(=O)c2cc(O)c(O)c(OC(=O)c3cc(O)c(O)c(O)c3)c2)[C@H](OC(=O)c2cc(O)c(O)c(OC(=O)c3cc(O)c(O)c(O)c3)c2)[C@@H](OC(=O)c2cc(O)c(O)c(OC(=O)c3cc(O)c(O)c(O)c3)c2)[C@@H]1OC(=O)c1cc(O)c(O)c(OC(=O)c2cc(O)c(O)c(O)c2)c1)c1cc(O)c(O)c(OC(=O)c2cc(O)c(O)c(O)c2)c1` [Tan, tannic acid], the “8OHdG concentration, 90 Minutes' standing” value [1, 3] was 0.84 ng/mL, the “8OHdG concentration, 90 Minutes' UV irradiation” value ([1]; 1 μg/ml, Table 2, distilled water 1.23) was 1.04 ng/mL and the “8OHdG concentration, 90 Minutes' standing” value [1, 4] was 5.64 ng/mL. For the same compound, the “8OHdG concentration, 90 Minutes' UV irradiation” value ([1]; 10 μg/ml, Table 2, distilled water 1.23) was 19.29 ng/mL, the “8OHdG concentration, 90 Minutes' standing” value ([1]; 100 μg/ml, Table 2, distilled water 0.15) was 54.00 ng/mL and the “8OHdG concentration, 90 Minutes' UV irradiation” value ([1]; 100 μg/ml, Table 2, distilled water 1.23) was 97.07 ng/mL. The “evaluation in words: oxidation induction or antioxidant ability toward dG” value (“evaluation in words” below) [1] was “high gene injury inducing effect”.

With `O=C1O[C@H]([C@@H](O)CO)C(O)=C1O` [VC, ascorbic acid] the “effect on 8OHdG with BPA and UV light irradiation” value [2] was “does not cancel the induction of 8OHdG by BPA”, the “8OHdG concentration, 90 Minutes' UV irradiation” value [2, 5] was 14.96 ng/mL and the “8OHdG concentration, 90 Minutes' UV irradiation” value [2, 6] was 15.95 ng/mL. The “8OHdG concentration, 90 Minutes' standing” value [2, 7] was 1.51 ng/mL, the “8OHdG concentration, 90 Minutes' UV irradiation” value [2, 8] was 12.53 ng/mL and the “8OHdG concentration, 90 Minutes' UV irradiation” value [2, 9] was 5.75 ng/mL. For the same compound, the “8OHdG concentration, 90 Minutes' standing” value [2, 9] was 16.3 ng/mL, the “8OHdG concentration, 90 Minutes' standing” value ([1]; 0.00001%, Table 2, distilled water 0.15) was 0.44 ng/mL and the “8OHdG concentration, 90 Minutes' UV irradiation” value ([1]; 0.00001%, Table 2, distilled water 1.23) was 0.46 ng/mL. The “8OHdG concentration, 90 Minutes' standing” value ([1]; 0.0001%, Table 2, distilled water 0.15) was 0.63 ng/mL, the “8OHdG concentration, 90 Minutes' UV irradiation” value ([1]; 0.0001%, Table 2, distilled water 1.23) was 1.51 ng/mL and the “8OHdG concentration, 90 Minutes' standing” value ([1]; 0.001%, Table 2, distilled water 0.15) was 6.04 ng/mL. The “8OHdG concentration, 90 Minutes' UV irradiation” value ([1]; 0.001%, Table 2, distilled water 1.23) was 38.36 ng/mL, the “evaluation in words” value [1] was “very strong oxidation inducing substance” and the “8OHdG induction on storage” value ([1]; stored for a long period added to a dG solution in contact with air) was “a large amount of 8OHdG was induced”.

With `Cc1c(C)c2c(c(C)c1O)CC[C@@](C)(CCC[C@H](C)CCC[C@H](C)CCCC(C)C)O2` [VE, vitamin E] the “effect on 8OHdG with BPA and UV light irradiation” value [2] was “significantly inhibit the increase in 8OHdG”, the “8OHdG concentration, 90 Minutes' UV irradiation” value [2, 5] was 15.43 ng/mL and the “8OHdG concentration, 90 Minutes' UV irradiation” value [2, 6] was 8.27 ng/mL. For the same compound, the “8OHdG concentration, 90 Minutes' standing” value [2, 7] was 0.29 ng/mL, the “8OHdG concentration, 90 Minutes' UV irradiation” value [2, 8] was 3.79 ng/mL and the “8OHdG concentration, 90 Minutes' UV irradiation” value [2, 9] was 0.28 ng/mL. For the same compound, the “8OHdG concentration, 90 Minutes' standing” value [2, 9] was 0.18 ng/mL, the “8OHdG concentration, 90 Minutes' standing” value ([1]; 0.0005%, Table 2, distilled water 0.15) was 0.49 ng/mL and the “8OHdG concentration, 90 Minutes' UV irradiation” value ([1]; 0.0005%, Table 2, distilled water 1.23) was 0.30 ng/mL. For the same compound, the “8OHdG concentration, 90 Minutes' standing” value ([1]; 0.005%, Table 2, distilled water 0.15) was 0.45 ng/mL, the “8OHdG concentration, 90 Minutes' UV irradiation” value ([1]; 0.005%, Table 2, distilled water 1.23) was 0.18 ng/mL and the “8OHdG concentration, 90 Minutes' standing” value ([1]; 0.05%, Table 2, distilled water 0.15) was 0.44 ng/mL. The “8OHdG concentration, 90 Minutes' UV irradiation” value ([1]; 0.05%, Table 2, distilled water 1.23) was 0.42 ng/mL and the “evaluation in words” value [1] was “very stable antioxidant”.

In the case of `O=c1[nH]c(=O)c2[nH]c(=O)[nH]c2[nH]1` [uric acid], the “8OHdG concentration, 90 Minutes' standing” value ([1]; 0.01 μg/ml, Table 6, dissolving fluid 0.218) was 0.176 ng/mL, the “8OHdG concentration, 90 Minutes' UV irradiation” value ([1]; 0.01 μg/ml, Table 6, dissolving fluid 1.007) was 1.064 ng/mL and the “8OHdG concentration, 90 Minutes' standing” value ([1]; 0.1 μg/ml, Table 6, dissolving fluid 0.218) was 0.193 ng/mL. The “8OHdG concentration, 90 Minutes' UV irradiation” value ([1]; 0.1 μg/ml, Table 6, dissolving fluid 1.007) was 0.966 ng/mL, the “8OHdG concentration, 90 Minutes' standing” value ([1]; 1 μg/ml, Table 6, dissolving fluid 0.218) was 0.175 ng/mL and the “8OHdG concentration, 90 Minutes' UV irradiation” value ([1]; 1 μg/ml, Table 6, dissolving fluid 1.007) was 2.369 ng/mL. For the same compound, the “8OHdG concentration, 90 Minutes' standing” value ([1]; 10 μg/ml in distilled water+0.025% FBS, Table 6, dissolving fluid 0.218) was 0.147 ng/mL, the “8OHdG concentration, 90 Minutes' UV irradiation” value ([1]; 10 μg/ml in distilled water+0.025% FBS, Table 6, dissolving fluid 1.007) was 15.619 ng/mL and the “evaluation in words” value [1] was “high degree of DNA oxidation injury”.

In the case of catechin, the “8OHdG concentration, 90 Minutes' standing” value [1, 3] was 9.07 ng/mL, the “8OHdG concentration, 90 Minutes' standing” value [1, 4] was 133.71 ng/mL and the “evaluation in words” value [1] was “induces 8OHdG very strongly”.
